The source of these data is the NIST ThermoML archive (doi:10.1021/je101199g).

Molecules are shown by their SMILES. Numbers after ± are expanded uncertainties.

For this data set the following is noted: Crystal.
In the case of `O=C(Oc1ccccc1)Oc1ccccc1` [diphenyl carbonate], the Normal melting temperature amounted to 80.81 ± 1.2 °C. The value for `Cc1ncc[nH]1` [2-methylimidazole] was 146.23 ± 1.2 °C; that for `CCCCCCCCCCCCO` [dodecan-1-ol] was 23.36 ± 0.62 °C. The value for `COC(=O)OC` [dimethyl carbonate] was 5.01 ± 0.62 °C.
